Where two headings read alike, the source gives them in different places.
Legend:
[1] = Corneal and plasma drug concentration after eye drops in rats; type: in vivo
Method: Objective: To Study the Ratio of Corneal to Plasma Drug Concentration After Eye Drops in Rats
Experimental Materials: Male SD Rats, 200-300 g, 7-9 weeks old, Shanghai Lingchang
Experimental procedures: The candidate compound was prepared as a clear solution, and administered to SD rats by eye drops. The vehicle for eye drops was 10% hydroxypropyl β-cyclodextrin aqueous solution, and the drug concentration in the eye drops was 5 mg/mL. Corneal and whole blood samples were collected at 1 and 4 hours, respectively. The corneal samples was homogenized in 15 mM phosphate buffer (PBS): MeoH (2:1, v: v) buffer, the whole blood samples were centrifuged at 3000 r for 10 min, and the supernatant plasma samples were separated. 20 μL of the plasma samples and homogenate samples were mixed with 400 μL of acetonitrile precipitated proteins containing an internal standard, respectively, and 2 μL of the supernatant was injected by centrifugation. The plasma concentrations were quantified by LC-MS/MS analysis; the drug concentrations in the cornea and plasma were measured respectively according to different time points, and the ratio of corneal/plasma concentrations was calculated.

[2] = biological target: T1, CYP1A2 (Homo sapiens, UniProt P05177); assay: Inhibition of human liver microsomal cytochrome P450 CYP1A2; type: in vitro ADME; details: human liver microsomes, probe substrate, NADPH
T1 construct: fused human liver microsomes were selected as a CYP450 enzyme source; from tissue; host or cells: pooled ("fused") human liver microsomes
T1 sequence (P05177 1-516): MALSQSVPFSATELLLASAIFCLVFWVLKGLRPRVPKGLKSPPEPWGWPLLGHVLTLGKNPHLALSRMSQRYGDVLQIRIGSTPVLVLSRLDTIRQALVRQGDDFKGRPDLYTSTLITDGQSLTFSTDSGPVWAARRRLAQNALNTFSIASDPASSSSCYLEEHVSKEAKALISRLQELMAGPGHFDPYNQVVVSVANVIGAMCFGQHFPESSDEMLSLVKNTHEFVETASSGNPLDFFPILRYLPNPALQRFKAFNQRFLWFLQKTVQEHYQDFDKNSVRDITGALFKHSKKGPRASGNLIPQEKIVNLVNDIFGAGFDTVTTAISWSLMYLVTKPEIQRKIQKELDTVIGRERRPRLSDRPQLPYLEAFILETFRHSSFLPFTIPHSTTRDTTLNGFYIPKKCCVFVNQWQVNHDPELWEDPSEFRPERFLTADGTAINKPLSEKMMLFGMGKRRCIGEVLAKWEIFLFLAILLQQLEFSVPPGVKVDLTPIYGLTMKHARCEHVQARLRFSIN
Excerpt: Objective: To study the inhibitory effect of compounds on human liver microsomal cytochrome P450. Experimental procedures: In the study on inhibition of the compounds on the human liver microsomal cytochrome P450 (CYP1A2, CYP2C9, CYP2C19, CYP2D6 and CYP3A4), fused human liver microsomes were selected as a CYP450 enzyme source. […]

- entry into the cornea by eye drops ([1]; SD rats, eye drops, result in words): could enter the cornea by eye drops
- concentration at 1 h ([1]; male, Sprague-Dawley (SD), rat, cornea, topical, eye drops 5 mg/mL, 1 h, read-out: Corneal Concentration): 1800 nM
- concentration at 4 h ([1]; male, Sprague-Dawley (SD), rat, cornea, topical, eye drops 5 mg/mL, 4 h, read-out: Corneal Concentration): 581 nM
- Kp ([1]; male, Sprague-Dawley (SD), rat, cornea/plasma, topical, 5 mg/mL, eye drops, statement in the conclusion, no time point, read-out: ratio of cornea/plasma concentrations): > 10
- Kp at 1 h ([1]; male, Sprague-Dawley (SD), rat, cornea/plasma, topical, eye drops 5 mg/mL, 1 h, read-out: Corneal Concentration/Plasma Concentration C/P ratio): 14.3
- Kp at 4 h ([1]; male, Sprague-Dawley (SD), rat, cornea/plasma, topical, eye drops 5 mg/mL, 4 h, read-out: Corneal Concentration/Plasma Concentration C/P ratio): 16.6
- concentration at 1 h ([1]; male, Sprague-Dawley (SD), rat, plasma, topical, eye drops 5 mg/mL, 1 h, read-out: Plasma Concentration): 162 nM
- concentration at 4 h ([1]; male, Sprague-Dawley (SD), rat, plasma, topical, eye drops 5 mg/mL, 4 h, read-out: Plasma Concentration): 43.8 nM
- IC50 [2]: > 50 µM
Compound: CC(C)(O)c1ccc(-c2cnc(C(C)(C)O)c(N)c2)cc1N [Compound 3]

Reference: US12479823B2, “Compound for use in retinal diseases” (ZHUHAI UNITED LABORATORIES CO., LTD., priority 2018, dated 2025)
